These are literature values, as cited in paper PMC9968691, “Perfluoroalkyl substances (PFASs) are substrates of the renal human organic anion transporter 4 (OAT4)” (Archives of Toxicology, 2022).

This series has as its system OAT4. Details: method as in Kimura et al. 2002; Morrissey et al. 2012. Particulars: probe substrate; ref Kimura et al. 2002; Morrissey et al. 2012; cited from earlier work.

Regarding `CCCCC[C@H](O)/C=C/[C@H]1[C@H](O)CC(=O)[C@@H]1C/C=C\CCCC(=O)O` [Prostaglandin E2, prostaglandin E2], the OAT4 substrate entry was “Yes”.
